Earlier results in patent US6756056B2, “Treatment of Parkinson's disease and related disorders by novel formulations of the combination carbidopa-levodopa” (priority 1997, dated 2004).

Conditions: doses of 400 mg per day

## C[C@@](Cc1ccc(O)c(O)c1)(NN)C(=O)O [carbidopa]
  Adverse effects: apparently devoid of adverse effects
